{
  "source": "patent US20200253506A1",
  "about": "“TREATMENT OF A DISEASE OF THE GASTROINTESTINAL TRACT WITH AN INTEGRIN INHIBITOR” (Progenity, Inc., priority 2016, published 2020)",
  "assay": "Tacrolimus tissue, plasma and GI content pharmacokinetics, oral vs intra-cecal ingestible device delivery",
  "assay_type": "in vivo",
  "settings": "swine; intra-cecal compared to oral; 12 hours post-dose; FIG. 76",
  "protocol": "No further randomization procedure was employed.\nAnimals in Group 1 received an ingestible device containing 0.8 mL of vehicle solution (80% alcohol, 20% HCO-60). Animals in Group 2 received orally […] liquid formulation of tacrolimus at 4 mg/0.8 mL per animal (Prograf: 5 mg/mL). Animals in Group 3 received intra-cecally an ingestible device containing tacrolimus at 1 mg in 0.8 mL per ingestible device. Animals in Group 4 received intra-cecally an ingestible device containing tacrolimus at 2 mg in 0.8 mL per ingestible device. Animals in Group 5 received intra-cecally an ingestible device containing tacrolimus at 4 mg in 0.8 mL per ingestible device. […]\nApproximately 200-400 mg of rectal content were collected, if available, with a fecal swab (Copan Diagnostics Nylon Flocked Dry Swabs, 502CS01). The fecal swab was pre-weighed and weighed after collection in the collection tube (Sterile Tube and Cap No Media, PFPM913S), and the sample weight was recorded. […]\nFor tissue necropsy, small intestine fluid and cecal fluid were collected separately from all the animals into two separate square plastic bottles, and stored at −20° C. The length and diameter of the cecum and the colon was measured from one animal in each group and recorded for reference. […] All samples were weighed, and the tissue sample weights were recorded. […]",
  "data": [
    {"compound": "C=CC[C@@H]1/C=C(\\C)C[C@H](C)C[C@H](OC)[C@H]2O[C@@](O)(C(=O)C(=O)N3CCCC[C@H]3C(=O)O[C@H](/C(C)=C/[C@@H]3CC[C@@H](O)[C@H](OC)C3)[C@H](C)[C@@H](O)CC1=O)[C@H](C)C[C@@H]2OC", "note": "[tacrolimus]", "values": [
      {"measurement": "mean concentration of tacrolimus in the cecum tissue and the proximate colon tissue", "result": "higher"}
    ]}
  ]
}
